According to patent EP4800015A1, “AZABICYCLO DERIVATIVE AND PREPARATION METHOD THEREFOR, AND USE” (Zhejiang Hisun Pharmaceutical Co., Ltd., priority 2023, dated 2025):
Each block holds one molecule with its values, some of them ahead of it.

Biological target: T1, recombinant human WRN (Homo sapiens, UniProt Q14191)
T1 construct: purchased BPS 101264
Experiment: Inhibition of WRN enzyme activity (ATPase), ADP-Glo Kinase Assay
Format: biochemical
Conditions: WRN protein 5 nM, Flap 0.1 nM, ATP 30 µM; read-out: IC50
Source text: The following method was used to determine the degree of inhibition of recombinant human WRN ATPase activity by the compounds of the present disclosure in vitro. In this method, ADP-Glo™ Kinase Assay kit (catalog No. V9102) from Promega was used. Detailed experimental procedures can be found in the kit manual.
The experimental procedure was briefly described as follows: test compounds were first dissolved in DMSO to prepare stock solutions, followed by serial dilution using reaction buffer (30 mM Tris, pH 7.5, 2 mM MgCl2, 50 mM NaCl, 0.02% BSA, 0.1% Pluronic F127), with final concentrations of test compounds in the reaction system ranging from 1000 nM to 0.004 nM; WRN protein (purchased from BPS, catalog No. 101264), substrate 5-flap oligonucleotide (Flap26) (synthesized by Shanghai Generay Biotech Co., Ltd., sequence 5'-[…]-3'), and ATP working solution (from ADP-Glo™ Kinase Assay kit component V915A) were prepared using reaction buffer. Reactions were performed in 384-well microplates. At first the compounds and recombinant human WRN protein (final concentration 5 nM) were added to the wells and the plate was incubated at room temperature for 15 minutes, then Flap solution (final concentration 0.1 nM) and ATP solution (final concentration 30 µM) were added to the reaction solution and the plate was incubated at room temperature for 10 minutes. Subsequently, 5 µL of ADP-Glo Reagent was added to the reaction system and incubated at room temperature for 40 minutes. Then 10 µL of Kinase Detection Reagent was added to the reaction system and incubated at room temperature for 30 minutes. After the incubation was completed, chemiluminescence intensity values of each well were measured using a microplate reader in luminescence mode. The percentage inhibition of the compounds at each concentration was calculated by comparison with the luminescence intensity values of the control group (0.1% DMSO), and IC50 values of compounds were obtained by nonlinear regression analysis of compound concentration logarithm-inhibition rate using GraphPad Prism 9 software, as shown in Table 1.
The IC50 value results of the compounds of the present disclosure are expressed as AA and A, respectively as follows: "AA" indicates IC50 ≤ 1 nM; "A" indicates 1 nM < IC50 ≤ 100 nM. Table 1 IC50 of the compounds of the present disclosure for inhibiting WRN enzyme activity (ATPase)

T1 sequence (Q14191 whole entry): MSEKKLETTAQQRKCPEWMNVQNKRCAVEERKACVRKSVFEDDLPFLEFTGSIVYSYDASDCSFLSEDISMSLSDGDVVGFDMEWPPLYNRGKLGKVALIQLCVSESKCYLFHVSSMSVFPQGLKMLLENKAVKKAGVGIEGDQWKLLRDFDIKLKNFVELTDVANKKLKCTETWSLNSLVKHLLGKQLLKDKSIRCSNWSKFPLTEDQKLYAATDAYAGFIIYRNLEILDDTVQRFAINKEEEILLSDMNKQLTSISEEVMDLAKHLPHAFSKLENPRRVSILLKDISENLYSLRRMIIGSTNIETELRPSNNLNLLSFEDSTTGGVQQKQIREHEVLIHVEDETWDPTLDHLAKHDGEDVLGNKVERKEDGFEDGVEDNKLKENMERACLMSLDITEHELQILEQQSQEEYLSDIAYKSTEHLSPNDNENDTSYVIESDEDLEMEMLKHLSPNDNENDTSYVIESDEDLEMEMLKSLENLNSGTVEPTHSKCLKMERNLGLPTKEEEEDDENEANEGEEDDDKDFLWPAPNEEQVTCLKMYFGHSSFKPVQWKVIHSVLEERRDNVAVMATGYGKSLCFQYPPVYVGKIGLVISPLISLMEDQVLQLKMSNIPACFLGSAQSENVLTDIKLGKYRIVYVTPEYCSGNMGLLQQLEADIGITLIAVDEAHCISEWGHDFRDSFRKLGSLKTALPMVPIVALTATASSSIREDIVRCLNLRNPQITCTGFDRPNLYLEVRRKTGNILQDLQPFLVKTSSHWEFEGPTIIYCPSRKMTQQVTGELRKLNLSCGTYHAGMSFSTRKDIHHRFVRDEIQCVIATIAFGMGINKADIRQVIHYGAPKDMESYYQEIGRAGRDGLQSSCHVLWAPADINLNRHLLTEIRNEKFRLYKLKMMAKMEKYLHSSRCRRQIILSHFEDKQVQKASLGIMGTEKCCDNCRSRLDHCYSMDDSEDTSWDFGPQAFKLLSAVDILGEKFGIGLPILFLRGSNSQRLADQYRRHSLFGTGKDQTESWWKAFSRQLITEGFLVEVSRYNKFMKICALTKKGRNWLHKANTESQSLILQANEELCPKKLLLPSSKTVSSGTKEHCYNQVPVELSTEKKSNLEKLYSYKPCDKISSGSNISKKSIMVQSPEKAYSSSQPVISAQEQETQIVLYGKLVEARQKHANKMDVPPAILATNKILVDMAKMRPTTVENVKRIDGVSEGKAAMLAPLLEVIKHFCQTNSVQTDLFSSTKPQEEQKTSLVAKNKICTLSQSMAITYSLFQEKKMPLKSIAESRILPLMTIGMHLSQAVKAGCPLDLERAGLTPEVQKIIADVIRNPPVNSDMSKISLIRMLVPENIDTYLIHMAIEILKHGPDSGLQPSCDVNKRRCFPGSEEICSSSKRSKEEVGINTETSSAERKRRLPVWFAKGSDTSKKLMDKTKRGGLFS

SMILES: CCc1c(N2CCN(C(=O)c3ncnc(C)c3O)CC2)c(=O)n2nc(N3CCCCCC3)nc2n1CC(=O)Nc1ccc(C(F)(F)F)cc1Cl [Example 3, 2-(2-(Azepan-1-yl)-5-ethyl-6-(4-(5-hydroxy-6-methylpyrimidine-4-carbonyl)piperazin-1-yl)-7-oxo-[1,2,4]triazolo[1,5-a]pyrimidin-4(7H)-yl)-N-(2-chloro-4-(trifluoromethyl)phenyl)acetamide]
- IC50: 1 to 100 nM

SMILES: CCc1c(N2CCN(C(=O)c3ncnc(C)c3O)CC2)c(=O)n2nc(C3CCCCCC3)nc2n1CC(=O)Nc1ccc(C(F)(F)F)cc1Cl [Example 4, N-(2-chloro-4-(trifluoromethyl)phenyl)-2-(2-cycloheptyl-5-ethyl-6-(4-(5-hydroxy-6-methylpyrimidine-4-carbonyl)piperazin-1-yl)-7-oxo-[1,2,4]triazolo[1,5-a]pyrimidin-4(7H)-yl)acetamide]
- IC50: 1 to 100 nM

SMILES: CCc1c(N2CCN(C(=O)c3ncnc(C)c3O)CC2)c(=O)n2nc(C(C)C)nc2n1CC(=O)Nc1ccc(C(F)(F)F)cc1Cl [Example 5, N-(2-chloro-4-(trifluoromethyl)phenyl)-2-(5-ethyl-6-(4-(5-hydroxy-6-methylpyrimidine-4-carbonyl)piperazin-1-yl)-2-isopropyl-7-oxo-[1,2,4]triazolo[1,5-a]pyrimidin-4(7H)-yl)acetamide]
- IC50: 1 to 100 nM

SMILES: CCc1c(N2CCN(C(=O)c3ccccc3O)CC2)c(=O)n2nc(C3=CCCCCC3)nc2n1CC(=O)Nc1ccc(C(F)(F)F)cc1Cl [Example 10, N-(2-chloro-4-(trifluoromethyl)phenyl)-2-(2-(cyclohept-1-en-1-yl)-5-ethyl-6-(4-(2-hydroxybenzoyl)piperazin-1-yl)-7-oxo-[1,2,4]triazolo[1,5-a]pyrimidin-4(7H)-yl)acetamide]
- IC50: 1 to 100 nM

SMILES: CCc1c(N2CCN(C(=O)c3cccc(C)c3O)CC2)c(=O)n2nc(C3=CCCCCC3)nc2n1CC(=O)Nc1ccc(C(F)(F)F)cc1Cl [Example 11, N-(2-Chloro-4-(trifluoromethyl)phenyl)-2-(2-(cyclohept-1-en-1-yl)-5-ethyl-6-(4-(2-hydroxy-3-methylbenzoyl)piperazin-1-yl)-7-oxo-[1,2,4]triazolo[1,5-a]pyrimidin-4(7H)-yl)acetamide]
- IC50: 1 to 100 nM

SMILES: CCc1c(N2CCN(C(=O)c3ccncc3O)CC2)c(=O)n2nc(C3=CC4CC(=O)CC4C3)nc2n1CC(=O)Nc1ccc(C(F)(F)F)cc1Cl (stereo not drawn) [Example 14, N-(2-chloro-4-(trifluoromethyl)phenyl)-2-(5-ethyl-6-(4-(3-hydroxyisonicotinoyl)piperazin-1-yl)-7-oxo-2-(5-oxo-1,3a,4,5,6,6a-hexahydropentalen-2-yl)-[1,2,4]triazolo[1,5-a]pyrimidin-4(7H)-yl)a cetamide]
- IC50: 1 to 100 nM

SMILES: CCc1c(N2CCN(C(=O)c3ncnc(C)c3O)CC2)c(=O)n2nc(NCCCCl)nc2n1CC(=O)Nc1ccc(C(F)(F)F)cc1Cl [Example 15, N-(2-chloro-4-(trifluoromethyl)phenyl)-2-(2-((3-chloropropyl)amino)-5-ethyl-6-(4-(5-hydroxy-6-methylpyrimidine-4-carbonyl)piperazin-1-yl)-7-oxo-[1,2,4]triazolo[1,5-a]pyrimidin-4(7H)-yl)ace tamide]
- IC50: 1 to 100 nM

SMILES: CCc1c(N2CCN(C(=O)c3ncnc(C)c3O)CC2)c(=O)n2nc(N3CC4(COC4)C3)nc2n1CC(=O)Nc1ccc(C(F)(F)F)cc1Cl [Example 16, N-(2-chloro-4-(trifluoromethyl)phenyl)-2-(5-ethyl-6-(4-(5-hydroxy-6-methylpyrimidine-4-carbonyl)piperazin-1-yl)-7-oxo-2-(2-oxa-6-azaspiro[3.3]heptan-6-yl)-[1,2,4]triazolo[1,5-a]pyrimidin-4(7H)-yl)acetamide]
- IC50: 1 to 100 nM

Other lines, results leading:

- IC50: 1 to 100 nM
SMILES: CCc1c(N2CCN(C(=O)c3ncnc(C)c3O)CC2)c(=O)n2nc(N3CCCOCC3)nc2n1CC(=O)Nc1ccc(C(F)(F)F)cc1Cl [Example 1, N-(2-chloro-4-(trifluoromethyl)phenyl)-2-(5-ethyl-6-(4-(5-hydroxy-6-methylpyrimidine-4-carbonyl)piperazin-1-yl)-2-(1,4-oxazepan-4-yl)-7-oxo-[1,2,4]triazolo[1,5-a]pyrimidin-4(7H)-yl)acetamide]

- IC50: 1 to 100 nM
SMILES: CCc1c(N2CCN(C(=O)c3ncnc(C)c3O)CC2)c(=O)n2nc(C3CCCC3)nc2n1CC(=O)Nc1ccc(C(F)(F)F)cc1Cl [Example 2, N-(2-Chloro-4-(trifluoromethyl)phenyl)-2-(2-cyclopentyl-5-ethyl-6-(4-(5-hydroxy-6-methylpyrimidine-4-carbonyl)piperazin-1-yl)-7-oxo-[1,2,4]triazolo[1,5-a]pyrimidin-4(7H)-yl)acetamide]

- IC50: 1 to 100 nM
SMILES: CCc1c(N2CCN(C(=O)c3ncnc(C)c3O)CC2)c(=O)n2nc(N3CCC3)nc2n1CC(=O)Nc1ccc(C(F)(F)F)cc1Cl [Example 7, 2-(2-(azetidin-1-yl)-5-ethyl-6-(4-(5-hydroxy-6-methylpyrimidine-4-carbonyl)piperazin-1-yl)-7-oxo-[1,2,4]triazolo[1,5-a]pyrimidin-4(7H)-yl)-N-(2-chloro-4-(trifluoromethyl)phenyl)acetamide]

- IC50: 1 to 100 nM
SMILES: CCc1c(N2CCN(C(=O)c3ncnc(C)c3O)CC2)c(=O)n2nc(N3CC4(CCOCC4)C3)nc2n1CC(=O)Nc1ccc(C(F)(F)F)cc1Cl [Example 8, N-(2-chloro-4-(trifluoromethyl)phenyl)-2-(5-ethyl-6-(4-(5-hydroxy-6-methylpyrimidine-4-carbonyl)piperazin-1-yl)-7-oxo-2-(7-oxa-2-azaspiro[3.5]nonan-2-yl)-[1,2,4]triazolo[1,5-a]pyrimidin-4(7 H)-yl)acetamide]

- IC50: < 1 nM
SMILES: CCc1c(N2CCN(C(=O)c3ccncc3O)CC2)c(=O)n2nc(C3=CCCCCC3)nc2n1CC(=O)Nc1ccc(C(F)(F)F)cc1Cl [Example 9, N-(2-chloro-4-(trifluoromethyl)phenyl)-2-(2-(cyclohept-1-en-1-yl)-5-ethyl-6-(4-(3-hydroxyisonic otinoyl)piperazin-1-yl)-7-oxo-[1,2,4]triazolo[1,5-a]pyrimidin-4(7H)-yl)acetamide]

- IC50: 1 to 100 nM
SMILES: CCc1c(N2CCN(C(=O)c3ncnc(C)c3O)CC2)c(=O)n2nc(C3CCCCC3)nc2n1CC(=O)Nc1ccc(C(F)(F)F)cc1Cl [Example 12, N-(2-Chloro-4-(trifluoromethyl)phenyl)-2-(2-cyclohexyl-5-ethyl-6-(4-(5-hydroxy-6-methylpyrimidine-4-carbonyl)piperazin-1-yl)-7-oxo-[1,2,4]triazolo[1,5-a]pyrimidin-4(7H)-yl)acetamide]

- IC50: 1 to 100 nM
SMILES: CCc1c(N2CCN(C(=O)c3ncnc(C)c3O)CC2)c(=O)n2nc(N3CCC4(CCNC4=O)CC3)nc2n1CC(=O)Nc1ccc(C(F)(F)F)cc1Cl [Example 13, N-(2-chloro-4-(trifluoromethyl)phenyl)-2-(5-ethyl-6-(4-(5-hydroxy-6-methylpyrimidine-4-carbonyl)piperazin-1-yl)-7-oxo-2-(1-oxo-2,8-diazaspiro[4.5]decan-8-yl)-[1,2,4]triazolo[1,5-a]pyrimidin-4(7H)-yl)acetamide]

- IC50: 1 to 100 nM
SMILES: CCc1c(N2CCN(C(=O)c3ncnc(C)c3O)CC2)c(=O)n2nc(C=C3CCCCC3)nc2n1CC(=O)Nc1ccc(C(F)(F)F)cc1Cl [Example 20, N-(2-chloro-4-(trifluoromethyl)phenyl)-2-(2-(cyclohexylidenemethyl)-5-ethyl-6-(4-(5-hydroxy-6-methylpyrimidine-4-carbonyl)piperazin-1-yl)-7-oxo-[1,2,4]triazolo[1,5-a]pyrimidin-4(7H)-yl)ac etamide]

- IC50: 1 to 100 nM
SMILES: CCc1c(N2CCN(C(=O)c3ncnc(C)c3O)CC2)c(=O)n2nc(C=C3CCOCC3)nc2n1CC(=O)Nc1ccc(C(F)(F)F)cc1Cl [Example 21, N-(2-chloro-4-(trifluoromethyl)phenyl)-2-(5-ethyl-6-(4-(5-hydroxy-6-methylpyrimidine-4-carbonyl)piperazin-1-yl)-7-oxo-2-((tetrahydro-4H-pyran-4-ylidene)methyl)-[1,2,4]triazolo[1,5-a]pyrimidin-4(7H)-yl)acetamide]

- IC50: 1 to 100 nM
SMILES: CCc1c(N2CCN(C(=O)c3ncnc(C)c3O)CC2)c(=O)n2nc(C3=CC4CCC3C4)nc2n1CC(=O)Nc1ccc(C(F)(F)F)cc1Cl (stereo not drawn) [Example 23, 2-(2-(bicyclo[2.2.1]hept-2-en-2-yl)-5-ethyl-6-(4-(5-hydroxy-6-methylpyrimidine-4-carbonyl)piperazin-1-yl)-7-oxo-[1,2,4]triazolo[1,5-a]pyrimidin-4(7H)-yl)-N-(2-chloro-4-(trifluoromethyl)phenyl)acetamide]
